Data on 85 compounds can be found in publication PMC5834442, “Identifying inhibitors of the Leishmania inositol phosphorylceramide synthase with antiprotozoal activity using a yeast-based assay and ultra-high throughput screening platform” (Scientific Reports, 2018).

Some results are limits rather than exact numbers.

This test relates to L. donovani (MHOM/SD/62/1S-CL2D, LdBOB) axenic amastigotes. The test can be described thus: Leishmania donovani axenic amastigote dose response assay (resazurin). It counts as cell-based. Particulars: -logIC50 mol against L. donovani (LdBOB) axenic amastigotes, read-out: pIC50 Axenic (converted).
`O=C1CC(c2ccccc2)N(c2ccc(Cl)cc2)N1` (stereo not shown) [0014C 75***]: the IC50 is 26.9 µM.
For the compound `Cc1cccc(Nc2cccc3c(=O)[nH][nH]c(=O)c23)c1C` [78/118], the IC50 was above 50 µM.
Take `CCOc1cc2c(cc1S(=O)(=O)c1ccc(COc3ccc(F)cc3)cc1)CCN(C)CC2` [AL101938-139A1]: the IC50 is 31.6 µM.
As to `O=C(NC1CCN(S(=O)(=O)c2ccc(O[C@@H]3CCNC3)cc2)CC1)c1ccc(Cl)c(Cl)c1` [AS45234-005A4B2C1D4], the IC50 is above 50 µM.
The same measure for `Cc1ncccc1Oc1ncc(Cl)cc1S(=O)(=O)Nc1cc(Cl)ccc1F` [AV207107-102A1]: 12.6 µM; for `COc1cc2c(cc1S(=O)(=O)c1ccc(COc3cccc(F)c3)cc1)CCN(C)CC2` [DC101675-085A1]: above 50 µM.
On to `O=S(=O)(Nc1ccccc1C(F)(F)F)c1ccc(-c2cccs2)s1` [DJ107456-053A67], for which the IC50 is 14.8 µM.
As to `Cc1cnc(NS(=O)(=O)c2ccc(-c3ccc(F)cc3)s2)c(Br)c1` [DJ107456-057A22], the IC50 was 28.2 µM.
The figure for `O=S(=O)(Nc1c(F)cccc1C(F)(F)F)c1ccc(-c2ccccc2F)s1` [DJ107456-080A211] is 26.9 µM; for `COc1ccc(-c2ccc(S(=O)(=O)Nc3ncc(Cl)cc3Cl)s2)cc1` [DJ107456-088A34] it is 27.5 µM; for `O=S(=O)(Nc1ccccc1CN1CCC(F)(F)C1)c1ccc(Cl)c(Cl)c1` [DS105792-004A16B1] it is 22.4 µM.
The figure for `O=S(=O)(Nc1cccc(F)c1CNCc1ccco1)c1ccc(Cl)c(Cl)c1` [DS105792-055A6B42] is 19.5 µM; for `O=S(=O)(Nc1cccc(F)c1CNCc1ccco1)c1ccccc1Cl` [DS105792-055A7B42] it is 32.4 µM; for `CN1CCC(Oc2cccc(C(=O)N3CCC(CNS(=O)(=O)c4cccc(F)c4)CC3)c2)CC1` [DS205504-126A32B5C8] it is above 50 µM.
The figure for `CN1CC[C@@H](Oc2cc(CNC(=O)c3ccc(Br)cc3)ccc2Cl)C1` [DZ203929-138A2] is above 50 µM; for `Nc1nonc1-c1nc2c(-c3cccc(F)c3)nccc2n1C1CCNCC1` [IS203450-048A1] it is 40.7 µM.
Turning to `CC(C(O)(Cn1cncn1)c1ccc(F)cc1F)S(C)(=O)=O` (stereo not shown) [JCH/31/2], the IC50 was above 50 µM.
The figure for `OC(CCC1CCCCC1)(Cn1ccnc1)c1ccc(F)cc1F` (stereo not shown) [JJP/1777/3] is 14.1 µM.
The figure for `OC(Cn1cncn1)(c1ccc(F)cc1F)C1CCCS1` (stereo not shown) [JJP/1818/3] is above 50 µM; for `Fc1ccc(-c2nc(-c3cccs3)[nH]c2-c2ccncc2)cc1` [JMS-15898-298-1] it is 20.9 µM.
The figure for `Nc1ccc(Br)cc1-c1nc(N)c2cc(Br)ccc2n1` [N4309-86-B1] is above 50 µM.
For the compound `Cc1cc(Cl)ccc1NC(=O)COc1ccccc1NS(=O)(=O)c1cccs1` [N6862-82-1], the IC50 was 20 µM.
On to `Cc1ccccc1NC(=O)COc1ccccc1NS(=O)(=O)c1cccs1` [N6862-82-2], for which the IC50 was above 50 µM.
On to `O=C(NC1=NN(c2ccc(Cl)c(Cl)c2)CC1)c1ncccn1` [N7030-10-104], for which the IC50 is above 50 µM.
The figure for `Cc1cc(Cl)ccc1NC(=O)CN(c1ccccc1C(=O)O)S(=O)(=O)c1cccs1` [N9272-3-4] is above 50 µM; for `Cc1c(-c2noc(-c3ccc(OC(C)C)c(Cl)c3)n2)ccc2c1CCNC2` [N11266-30-A1] it is 22.4 µM; for `O=C(NC1=NN(c2ccc(Cl)c(Cl)c2)CC1)c1ccncc1` [N11828-23-3] it is above 50 µM.
The figure for `O=C1CCc2cc(-c3csc(-c4cccnc4)n3)ccc2N1` [R9196/29/59] is above 50 µM.
In the case of `O=S(=O)(Nc1cc(Cl)ccc1O)c1ccc(Cl)c(Cl)c1` [R10040/200/6], the IC50 is 12 µM.
As for `CCn1ncc2c(N[C@H]3CCCC[C@H]3C(=O)O)c(C(=O)NCc3ccccc3)cnc21` [R10565/35/4], the IC50 was above 50 µM.
The figure for `CN1CCN(c2ccc3ncc(-c4cccc(NC(=O)Cc5cccs5)c4)n3n2)CC1` [R11466/151/4] is above 50 µM; for `O[C@@](Cn1cncn1)(c1ccc(F)cc1F)C1CCOCC1` [RB/854/3] it is above 50 µM; for `O=C(NCc1cccs1)c1sccc1NS(=O)(=O)c1ccccc1` [RF44798-098A21] it is 12.3 µM.
The same measure for `O=C(NCc1ccccc1)c1sccc1NS(=O)(=O)c1ccccc1` [RF44798-098A22]: 21.4 µM.
The figure for `O=c1cc(-c2ccccc2O)oc2ccccc12` [SC/32543] is above 50 µM.
`Nc1ccc(S(=O)(=O)Nc2ccccc2Oc2ccc(Cl)cc2Cl)cc1` [SC/79553]: the IC50 is 10.5 µM.
As to `c1ccc(N2CCN(c3ncc(-c4cccs4)cn3)CC2)nc1` [SC/89927], the IC50 was above 50 µM.
The same measure for `CC1CCc2c(sc(NC(=O)c3cccs3)c2C#N)C1` (stereo not shown) [SC/95708]: above 50 µM; for `O=C(Nc1c(Br)c(C2CC2)nn1-c1ccccc1)C(Cl)(Cl)Cl` [SC/96415]: 20.4 µM.
The same measure for `O=S(=O)(Nc1cccc2nsnc12)c1cccs1` [SC/96769]: 24.5 µM; for `CCc1cccc(NC(=O)Nc2cc(F)ccc2F)c1` [SC/109224]: 15.1 µM; for `COc1ccc(Cl)cc1NC(=O)Nc1cccc(F)c1` [SC/109667]: 11.5 µM.
The figure for `O=C(NNC(=O)c1c(O)c2ccccc2[nH]c1=O)c1ccc(Cl)cc1Cl` [SC/110880] is above 50 µM; for `Cc1ccc(-c2nc3ccccc3[nH]2)cc1NC(=O)c1cc2ccccc2o1` [ST48766-047X8] it is 11.7 µM.
Consider `O=C(c1cccs1)c1conc1C(=O)c1ccc(Br)cc1` [ST/261533], for which the IC50 is above 50 µM.
On to `COc1ccc(C(=O)c2nocc2C(=O)c2ccc(Cl)cc2)cc1` [ST/261550], for which the IC50 is 44.7 µM.
Regarding `O=C(Nc1nnc(COc2ccc(F)cc2)s1)c1cnccn1` [ST/389620], the IC50 is 33.1 µM.
For `FC(F)(F)c1ccc(Nc2nc(-c3ccncc3)cs2)cc1` [ST/510927], the IC50 was 27.5 µM.
The same measure for `N#Cc1ccc(Cn2cc(C(=O)c3cccs3)c3ccccc32)cc1` [ST/516872]: 14.8 µM; for `Cc1oc2cc(O)ccc2c(=O)c1-c1nc2ccccc2s1` [ST/517902]: above 50 µM; for `Nc1ccc(-c2nc3cc(Cl)cc(Cl)c3o2)cc1` [ST/525525]: 49 µM.
The figure for `COc1ccc(S(=O)(=O)Nc2ccccc2C(F)(F)F)c(Cl)c1Cl` [ST/534228] is 19.5 µM; for `CNc1nc(N)c([N+](=O)[O-])c(Nc2cccc(Cl)c2)n1` [ST/537896] it is 19.5 µM; for `Cc1ccc2cc(C(=O)Nc3ccc(C)c(N)c3)sc2c1` [ST/551412] it is 20.4 µM.
For the compound `CCOc1cccc(C(=O)Nc2cc(-c3nc4ccccc4[nH]3)ccc2C)c1` [ST/591387], the IC50 is 15.8 µM.
Take `O=C(c1ccccc1)N1C(=O)C(c2ccccc2)Oc2ccccc21` (stereo not shown) [ST/629481]: the IC50 was 24.5 µM.
In the case of `O=S(=O)(Nc1ccccc1Br)c1ccc(Cl)c(C(F)(F)F)c1` [ST/630987], the IC50 is 19.1 µM.
For `O=C(Nc1ccc(OC(F)(F)F)cc1)c1ccc(Br)s1` [ST/631944], the IC50 was 13.2 µM.
For the compound `CC(c1ccccc1)N1Cc2cccc(C(=O)O)c2C1=O` (stereo not shown) [ST/641236], the IC50 is above 50 µM.
The same measure for `N#Cc1ccc(NC(=O)c2cccs2)cc1C#N` [ST/646239]: 20.9 µM; for `CCOc1nc2ccccc2nc1NS(=O)(=O)c1ccccc1` [ST/646349]: 22.9 µM; for `O=C(NCCc1ccccc1)c1ccccc1NS(=O)(=O)c1cccs1` [ST/648091]: 18.6 µM.
The same measure for `O=C(NCc1ccco1)c1ccccc1NS(=O)(=O)c1cccs1` [ST/662660]: 20.4 µM; for `O=S(=O)(Nc1cccc2nsnc12)c1ccccc1` [ST/663705]: 39.8 µM; for `CN(C)CCNc1ccc2ncc(-c3ccc4ccccc4c3)n2n1` [ST/668081]: above 50 µM.
The figure for `Cc1ccnc2nc(C(=O)N3CCCSC3=Nc3cccc(C(F)(F)F)c3)nn12` [ST/682329] is 31.6 µM; for `O=C(O)c1cccc2c1C(=O)N(Cc1ccccc1F)C2` [ST/689197] it is above 50 µM.
Regarding `CCOc1ccc2[nH]c(=O)c(CN(Cc3cccnc3)C(=O)Nc3ccc(F)cc3)cc2c1` [ST/696972], the IC50 is above 50 µM.
The figure for `COc1ccc(S(=O)(=O)Nc2cc(Cl)ccc2C)c(C)c1C` [ST/724177] is 19.1 µM; for `O=C(c1ccco1)c1cn(Cc2ccc(F)cc2)c2ccccc12` [ST/727705] it is 28.8 µM.
The figure for `CCN(C(=O)Cc1c(C(=O)O)[nH]c2ccccc12)c1cc(C)ccc1C` [ST/728445] is 18.2 µM; for `O=C(Nc1cccc(C(F)(F)F)c1)c1cc(-c2cccc(O)c2)on1` [ST/728737] it is above 50 µM; for `O=C(Nc1cccc(Cl)c1)Nc1ccc2snnc2c1` [ST/736217] it is 13.5 µM.
On to `Cc1ccc2[nH]c(COc3ccc(Cl)cc3)nc2c1` [ST/743143], for which the IC50 is 29.5 µM.
The figure for `O=C(Nc1ccccc1C(=O)NCc1ccc(Cl)cc1)c1ccco1` [ST/771851] is above 50 µM.
On to `O=C(Nc1nnc(C(F)(F)F)s1)c1ccc(Br)s1` [ST/782334], for which the IC50 is 11.7 µM.
The figure for `O=C(Nc1oc2ccc(Cl)cc2c(=O)c1-c1ccc(Br)cc1)c1ccco1` [ST/802162] is 25.1 µM; for `COc1cccc2[nH]c(C(=O)Nc3cccc(Cl)c3)cc12` [ST/803957] it is 12.3 µM.
The same measure for `COc1ccc2cc(C(=O)Nc3ccc(F)c(Cl)c3)[nH]c2c1` [ST/803999]: 11.2 µM; for `Cc1cc(C(=O)N(C2=NC(C)CS2)c2ccc(Cl)cc2)no1` (stereo not shown) [ST/807832]: above 50 µM; for `CC1CSC(N(C(=O)Cn2cnnn2)c2ccc(Cl)cc2)=N1` (stereo not shown) [ST/811532]: above 50 µM.
With `CC1CSC(N(C(=O)CN2CSCC2=O)c2ccc(Cl)cc2)=N1` (stereo not shown) [ST/812474], the IC50 was above 50 µM.
The figure for `CC1CSC(N(C(=O)Cc2cccs2)c2ccc(Cl)cc2)=N1` (stereo not shown) [ST/815117] is 33.9 µM; for `CC1CSC(N(C(=O)CCc2ccco2)c2ccc(Cl)cc2)=N1` (stereo not shown) [ST/816400] it is 21.9 µM.
The same measure for `Cn1c(=O)c(Oc2ccc(Cl)cc2)c(O)c2ccccc21` [ST/832324]: above 50 µM.
